Key:
[1] = target: MYCN G4 DNA; experiment: Microscale thermophoresis (MST) with 3′-Cy5 MYCN G4 DNA; design: species or system human; settings: 3′-Cy5 labeled MYCN G4, 1:1 binding model; read-out: binding affinity by MST
Protocol: Microscale thermophoresis (MST). MST experiments were carried out on a Monolith NT.115 system (NanoTemper Technologies). The 3′-Cy5 MYCN G4 DNA solutions were prepared in 10 mM Tris (pH 7.5), 100 mM KCl, 0.005% T20, annealed (according to the above-mentioned method), and diluted to 100 nM (2×). The DMSO solutions of small molecules were prepared in the buffer with a series 1:1 dilution, resulting in 2× of designed concentrations (10% DMSO). Then, DNA samples were 1:1 (v/v) mixed with corresponding small molecule solutions, resulting in 50 nM DNA and 5% DMSO. Finally, MST signals were detected in triplicate capillaries, and the dissociation constant was determined by fitting the curve using a single-site model (MO.Affinity Analysis v2.3).

[2] = tested on: 12 different G4 oligos as well as non-G4 oligos (dsDNA and ssDNA); experiment: Small-scale DNA G4 microarray binding selectivity; settings: B33 at 2.5 μM
Protocol: In this example, a small-scale DNA G4 microarray containing 12 different G4 oligos as well as non-G4 oligos (dsDNA and ssDNA) was fabricated and tested (Table 4). To start with, a SA-coated glass surface was prepared. An amino-functionalized glass slide was firstly modified with a solution of N, N′-disuccinimidyl carbonate (DSC, 1.0 M) and N, N-diisopropylethylamine (DIPEA, 1.0 M) in DMF overnight at room temperature. After being washed successively with EtOH, Milli-Q water (5 min each) and dried with N2 gas, the slide was incubated with 1 mg/mL of SA solution for 12 h (overnight) in a 4° C. fridge, followed by blocking the surface with EA buffer for 30 minutes. Then, the slide was rinsed with PBS buffer and Milli-Q water, and dried b centrifugation (1,700 g, 2 min).
In parallel, biotin-labeled DNA/RNA oligos were prepared in annealing buffer resulting in 5 μM stock solutions, followed by annealing (according to above methods). Then all the oligo solutions were transferred into a 384-well plate. Next, the microarray printing was conducted by a robotic arrayer (Nanoprint, Arrayit, USA) with a humidity of 60%. After the microarray was fabricated, the slide was placed in a slide box with a piece of wet Kimwipe tissue and incubated at 4° C. for 2 h.
To incubate with the fluorescent compounds (compound B33, thiazole orange (“TO”), and amsacrine), the slide was thoroughly rinsed with PBST, PBS, and water to remove the unbounded oligos. Then, the slide was dried by centrifugation (1,700 g, 2 min) and quickly assembled with microarray gaskets (Agilent, USA), followed by loading the compound solutions. After 1 h incubation, the slide was washed and dried with the above-mentioned method. Finally, the microarray slide was imaged by a fluorescence scanner (Mapix) using green channel and the fluorescence intensities were quantified.

[3] = tested on: ~19,000 different G4 sequences, G4 and non-G4 controls; experiment: High-density DNA oligo microarray (~19,000 G4 sequences) selectivity profiling; format: binding; settings: 500 nM compound
From the text: To further characterize the binding selectivity of compound B33, high-density and large-scale DNA microarrays that contained ˜19,000 different G4 sequences were fabricated and used. In this microarray, 340 reported G4s (G-rich sequences) as well as 280 non-G4s (C-rich sequences) were designed as positive and negative controls. Additionally, over 17,000 canonical G4 oligos with short loops (1˜7 nt) were also designed and synthesized by varying the loop sequences to meet the diversity of G4 structure. After folding the surface-grafted DNA oligos in high concentration of KCl buffer, TO and compound B33 solutions (500 nM) were incubated with the microarray, respectively. Then the slides were thoroughly washed, dried, and imaged by a fluorescent scanner using green channel. […] By quantifying the fluorescence intensity of each spot, the bindings of TO and compound B33 were further investigated. The kernel density estimate (KDE) plot and violin plot represented the distribution of the binding signals throughout the whole microarray. […] Compound B33 spectrum spanned a much wider range than that of TO. In the violin plot (FIG. 37C), the mean SNR value of TO group was 12, much higher than that of the compound B33 group. […] Furthermore, the selectivity of the two compounds were quantitatively profiled by using Gini coefficient. Gini coefficient, initially used as an economic concept, has been applied in profiling the selectivity/promiscuity of kinase inhibitors as well as RNA binders. A higher Gini value represents a better selectivity of a compound (Gini coefficient>0.75 is considered an excellent selectivity). The Gini coefficient based on the SNRs in the microarray.

[4] = tested on: MANGO II RNA G4; experiment: SPR binding to MANGO II RNA G4; settings: duplex-containing RNA G4
[5] = tested on: NBEB cells; experiment: MTS cell survival assay; format: cell-based; settings: up to 45 μM
Protocol: To examine the effects of G4-binding compounds on NBEB cells, live-cell imaging was performed using an Incucyte interface (described below). NBEB (5K/well), cells were seeded into 96-well plates in triplicate, treated with compound MY-8 at various concentrations (0-45 μM), and cultured until control wells reached confluence. For RT-qPCR and western blotting, NBEB (300K) cells were treated with MY-8 in 6-well dish for 48 h. To examine the time-dependent decrease in MYCNOs expression, cells were treated with 22.5 μM and 45 μM MY-8 and analyzed at various times (0, 4, 24, 48, 72 and 96 h). To validate cell viability, a Trypan Blue exclusion test was performed following treatment at 48 h and 96 h post treatment and the proportion of live versus dead cells was calculated using a hemocytometer.
Cell survival. Following live cell image analysis, a 3-(4, 5-dimethylthiazol-2-yl)-5-(3-carboxymethoxyphenyl)-2-(4-sulfophenyl)-2H-tetrazolium inner salt assay was performed to examine cell survival. (MTS; inner salt assay; Promega, America). Absorbance was measured with a microplate reader (BIO-RAD, America) at 490 nm wavelength. To calculate the proportion of viable cells, MY-8 treated cells were divided by the control samples from each group.

SMILES: COc1ccc(-c2noc(-c3ccc(NCCCN4CCCC4)nn3)n2)cc1 [MY-1, 6-(3-(4-methoxyphenyl)-1,2,4-oxadiazol-5-yl)-N-(3-(pyrrolidin-1-yl)propyl)pyridazin-3-amine]
- Kd [1]: 8.1 ± 1.7 µM

SMILES: COc1ccc(-c2noc(-c3ccc(NCCCNc4c5ccc(Cl)cc5nc5ccc(OC)cc45)nn3)n2)cc1 [B33, N^1-(6-chloro-2-methoxyacridin-9-yl)-N^3-(6-(3-(4-methoxyphenyl)-1,2,4-oxadiazol-5-yl)pyridazin-3-yl)propane-1,3-diamine]
- binding to dsDNA/ssDNA in microarray [2]: no binding to dsDNA/ssDNA was observed
- binding to hairpin containing G4 DNAs hTERT and BCL2 in microarray [2]: didn't show fluorescence
- binding pattern in G4 microarray ([2]; fluorescent compound incubated 1 h): only MYCN spots lighted up
- binding to the 620 G4 and non-G4 controls ([3]; 340 G4s and 280 non-G4s): some binding to G4s while there was no binding observed in non-G4 group
- Gini coefficient ([3]; based on SNRs in the microarray): 0.628
- binding to MANGO II RNA G4 by SPR [4]: weak binding

SMILES: COc1ccc(-c2noc(-c3ccc(NCCCN4CCCCCC4)nn3)n2)cc1 [MY-8, N-(3-(azepan-1-yl)propyl)-6-(3-(4-methoxyphenyl)-1,2,4-oxadiazol-5-yl)pyridazin-3-amine]
- CC50 [5]: 20.5 µM

Reference: US20240287054A1, “COMPOUNDS THAT BIND NON-CANONICAL G-QUADRUPLEX STRUCTURES AND METHODS OF MAKING AND USING THE SAME” (The U.S.A., as Represented by the Secretary, Department of …, priority 2021, published 2024)
